Measured values from US10844027B2, “Carboxylic diarylthiazepineamines as mu-opioid receptor agonists” (THE TRUSTEES OF COLUMBIA UNIVERSITY IN THE CITY OF NEW YORK, priority 2015, dated 2020).
Counter-ions that a name gives are not always drawn.

Tests used:
[1] = target: T1, human mu-opioid receptor (MOR) (Homo sapiens, UniProt P35372); assay: BRET assay measuring G protein activation, agonist activity at human MOR; type: cell-based
T1 construct: expressed in transfected cells; host or cells: HEK-293T
Description: After 24 hours the media was changed, and the experiment was performed 24 hours later (48 hours after transfection).
Transfected cells were dissociated and re-suspended in phosphate-buffered saline (PBS). […] The microplate was centrifuged and the cells were re-suspended in PBS. Then 5 μM of the luciferase substrate coelenterazine H was added to each well for 5 minutes. Following coelenterazine H addition, ligands were added and the BRET signal was measured at 5 minutes on a PHERAstar FS plate reader. Quantification of the BRET signal required calculating the ratio of the light emitted by the energy acceptor, mVenus (510-540 nm), over the light emitted by the energy donor, RLuc8 (485 nm). […] Dose response curves were fit using a three-parameter logistics equation in GraphPad Prism 6.

[2] = target: T2, human delta-opioid receptor (DOR) (Homo sapiens, UniProt P41143); assay: BRET assay measuring G protein activation, agonist activity at human DOR; type: cell-based
T2 construct: expressed in transfected cells; host or cells: HEK-293T
Description: The diarylthiazepinamine esters (6) and carboxylic acids (7) were tested for agonist activity at the human mu-opioid receptor (MOR) and delta-opioid receptor (DOR) using bioluminescence resonance energy transfer (BRET) assays measuring G protein activation as previously described (Table 1) (Rives, M.-L. et al. 2012; Negri, A. et al. 2013).
Human MOR or DOR cDNA was transfected alongside GαoB with RLuc8 inserted at position 91 (GαoB—RLuc8), Gβ1 (β1), and Gγ2 fused to the full-length mVenus at its N terminus (mVenus-γ2) into HEK-293T cells (5×10^6 cells/plate) in 10-cm dishes using PEI (Polysciences Inc.; Warrington, Pa.) in a 1:1 ratio diluted in Opti-MEM (Life Technologies Corp.; Grand Island, N.Y.) to assay for G protein activation as described previously (Rives, M.-L. et al. 2012; Negri, A. et al. 2013). Cells were maintained in Dulbecco's Modified Eagle Medium (high glucose #11965; Life Technologies) supplemented with 10% FBS (Premium Select, Atlanta Biologicals; Atlanta, Ga.) and 100 U/mL penicillin and 100 μg/mL streptomycin (#15140, Life Technologies). After 24 hours the media was changed, and the experiment was performed 24 hours later (48 hours after transfection).
Transfected cells were dissociated and re-suspended in phosphate-buffered saline (PBS). Approximately 200,000 cells/well were added to a black-framed, white well 96-well plate (#60050; Perkin Elmer; Waltham, Mass.). The microplate was centrifuged and the cells were re-suspended in PBS. Then 5 μM of the luciferase substrate coelenterazine H was added to each well for 5 minutes. Following coelenterazine H addition, ligands were added and the BRET signal was measured at 5 minutes on a PHERAstar FS plate reader. Quantification of the BRET signal required calculating the ratio of the light emitted by the energy acceptor, mVenus (510-540 nm), over the light emitted by the energy donor, RLuc8 (485 nm). […] Dose response curves were fit using a three-parameter logistics equation in GraphPad Prism 6.

[3] = Brain pharmacokinetics of tianeptine and its 5-carbon metabolite (7i) in mice
Description: Brain samples were collected from three mice at 0.08, 0.25, 0.5, 1, 2, 4, 8 and 24 h, homogenized using ice-cold phosphate buffer saline (pH 7.4), and stored below −70° C. until analysis. Total homogenate volume was three times the tissue weight. All samples were processed for analysis by protein precipitation using acetonitrile (ACN) and analyzed with a fit-for-purpose LC/MS/MS method (LLOQ—1.01 ng/mL in brain). Pharmacokinetic parameters were calculated using the non-compartmental analysis tool of Phoenix WinNonlin® (Version 6.3).

[4] = brain, C57BL/6 mice, single injection (30 mg/kg, i.p.) of tianeptine
[5] = brain, mice, after tianeptine 30 mg/kg i.p.
[6] = male, C57BL/6, mouse, in vivo, ip, 30 mg/kg

T2 sequence (P41143 whole entry): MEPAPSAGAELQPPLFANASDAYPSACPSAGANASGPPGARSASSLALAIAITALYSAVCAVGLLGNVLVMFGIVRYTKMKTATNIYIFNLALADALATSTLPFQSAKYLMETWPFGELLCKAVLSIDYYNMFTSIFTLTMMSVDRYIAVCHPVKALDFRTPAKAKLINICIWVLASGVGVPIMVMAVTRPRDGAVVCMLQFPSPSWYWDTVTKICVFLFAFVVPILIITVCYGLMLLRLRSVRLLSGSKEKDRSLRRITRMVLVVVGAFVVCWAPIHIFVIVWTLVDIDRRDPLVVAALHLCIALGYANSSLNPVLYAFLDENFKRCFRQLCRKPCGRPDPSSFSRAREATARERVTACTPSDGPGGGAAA
T1 sequence (P35372 whole entry): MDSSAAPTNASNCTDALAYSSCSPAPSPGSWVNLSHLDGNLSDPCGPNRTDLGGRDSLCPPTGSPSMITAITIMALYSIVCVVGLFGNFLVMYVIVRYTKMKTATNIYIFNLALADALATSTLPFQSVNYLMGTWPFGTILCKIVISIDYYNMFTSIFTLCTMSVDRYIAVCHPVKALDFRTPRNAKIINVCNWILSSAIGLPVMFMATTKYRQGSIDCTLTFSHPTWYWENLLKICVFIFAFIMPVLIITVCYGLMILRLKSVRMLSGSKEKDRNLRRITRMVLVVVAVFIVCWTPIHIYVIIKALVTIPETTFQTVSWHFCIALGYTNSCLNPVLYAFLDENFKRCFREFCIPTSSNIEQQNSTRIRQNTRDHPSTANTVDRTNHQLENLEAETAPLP

SMILES	EC50 [1]	EC50 [2]	also measured
CCOC(=O)CCNC1c2ccccc2N(C)S(=O)(=O)c2cc(Br)ccc21 (stereo not shown) [Compound 6a, Ethyl 3-((3-bromo-6-methyl-5,5-dioxido-6,11l-dihydrodibenzo[c,f][1,2]thiazepin-11-yl)amino)propanoate]	5.9 ± 1 µM	> 10 µM	
CCOC(=O)CCNC1c2ccccc2N(C)S(=O)(=O)c2cc(I)ccc21 (stereo not shown) [Compound 6b, Ethyl 3-((3-iodo-6-methyl-5,5-dioxido-6,11-dihydrodibenzo[c,f][1,2]thiazepin-11-yl)amino)propanoate]	1.6 ± 0.2 µM	> 10 µM	
CCOC(=O)CCCNC1c2ccccc2N(C)S(=O)(=O)c2cc(Br)ccc21 (stereo not shown) [Compound 6c, Ethyl 4-((3-bromo-6-methyl-5,5-dioxido-6,11-dihydrodibenzo[c,f][1,2]thiazepin-11-yl)amino)butanoate]	0.27 ± 0.038 µM	> 10 µM	
CCOC(=O)CCCCNC1c2ccccc2N(C)S(=O)(=O)c2cc(Br)ccc21 (stereo not shown) [Compound 6d, Ethyl 5-((3-bromo-6-methyl-5,5-dioxido-6,11-dihydrodibenzo[c,f][1,2]thiazepin-11-yl)amino)pentanoate]	0.12 µM		
CCOC(=O)CCCCNC1c2ccccc2N(C)S(=O)(=O)c2cc(I)ccc21 (stereo not shown) [Compound 6e, Ethyl 5-((3-iodo-6-methyl-5,5-dioxido-6,11-dihydrodibenzo[c,f][1,2]thiazepin-11-yl)amino)pentanoate]	0.0282 ± 0.0032 µM	6.8 ± 0.03 µM	
CCOC(=O)CCCCCNC1c2ccccc2N(C)S(=O)(=O)c2cc(Br)ccc21 (stereo not shown) [Compound 6f, Ethyl 6-((3-bromo-6-methyl-5,5-dioxido-6,11-dihydrodibenzo[c,f][1,2]thiazepin-11-yl)amino)hexanoate]	0.0908 ± 0.0314 µM	11.7 ± 0.06 µM	
CCOC(=O)CCCCCNC1c2ccccc2N(C)S(=O)(=O)c2cc(I)ccc21 (stereo not shown) [Compound 6g, Ethyl 6-((3-iodo-6-methyl-5,5-dioxido-6,11l-dihydrodibenzo[c,f][1,2]thiazepin-11-yl)amino)hexanoate]	0.0485 ± 0.0049 µM	8.5 ± 6.3 µM	
CCOC(=O)CCCCNC1c2ccccc2N(C)S(=O)(=O)c2cc(Cl)ccc21 (stereo not shown) [Compound 6i, Ethyl 5-((3-chloro-6-methyl-5,5-dioxido-6,11-dihydrodibenzo[c,f][1,2]thiazepin-11-yl)amino)pentanoate]	0.533 ± 0.267 µM	> 10 µM	
CCOC(=O)CCCCCNC1c2ccccc2N(C)S(=O)(=O)c2cc(Cl)ccc21 (stereo not shown) [Compound 6j, Ethyl 6-((3-chloro-6-methyl-5,5-dioxido-6,11-dihydrodibenzo[c,f][1,2]thiazepin-11-yl)amino)hexanoate]	0.318 ± 0.162 µM	13.9 ± 4.8 µM	
CN1c2ccccc2C(NCCC(=O)O)c2ccc(Br)cc2S1(=O)=O (stereo not shown) [Compound 7a, 3-((3-Bromo-6-methyl-5,5-dioxido-6,1-dihydrodibenzo[c,f][1,2]thiazepin-11-yl)amino)propanoic acid hydrochloride salt]	4.7 ± 1.4 µM	> 10 µM	
CN1c2ccccc2C(NCCC(=O)O)c2ccc(I)cc2S1(=O)=O (stereo not shown) [Compound 7b, 3-((3-Iodo-6-methyl-5,5-dioxido-6,11-dihydrodibenzo[c,f][1,2]thiazepin-11-yl)amino) propanoic acid hydrochloride salt]	1.2 ± 0.3 µM	> 10 µM	
CN1c2ccccc2C(NCCCC(=O)O)c2ccc(Br)cc2S1(=O)=O (stereo not shown) [Compound 7c, 4-((3-Bromo-6-methyl-5,5-dioxido-6,11-dihydrodibenzo[c,f][1,2]thiazepin-11-yl)amino)butanoic acid hydrochloride salt]	2 ± 0.3 µM	> 10 µM	
CN1c2ccccc2C(NCCCCC(=O)O)c2ccc(Br)cc2S1(=O)=O (stereo not shown) [Compound 7d, 5-((3-Bromo-6-methyl-5,5-dioxido-6,11-dihydrodibenzo[c,f][1,2]thiazepin-11-yl)amino)pentanoic acid hydrochloride salt]	0.405 µM	> 10 µM	
CN1c2ccccc2C(NCCCCC(=O)O)c2ccc(I)cc2S1(=O)=O (stereo not shown) [Compound 7e, 5-((3-Iodo-6-methyl-5,5-dioxido-6,11-dihydrodibenzo[c,f][1,2]thiazepin-11-yl)amino)pentanoic acid hydrochloride salt]	0.0183 ± 0.0002 µM	8.9 ± 0.007 µM	
CN1c2ccccc2C(NCCCCCC(=O)O)c2ccc(Br)cc2S1(=O)=O (stereo not shown) [Compound 7f, 6-((3-Bromo-6-methyl-5,5-dioxido-6,11-dihydrodibenzo[c,f][1,2]thiazepin-11-yl)amino)hexanoic acid hydrochloride salt]	0.133 ± 0.0132 µM	23.7 ± 1.5 µM	
CN1c2ccccc2C(NCCCCCC(=O)O)c2ccc(I)cc2S1(=O)=O (stereo not shown) [Compound 7g, 6-((3-Iodo-6-methyl-5,5-dioxido-6,11-dihydrodibenzo[c,f][1,2]thiazepin-11-yl)amino)hexanoic acid hydrochloride salt]	0.0243 ± 0.0045 µM	5.1 ± 1.4 µM	
CN1c2ccccc2C(NCCC(=O)O)c2ccc(Cl)cc2S1(=O)=O (stereo not shown) [Compound 7h, 3-((3-Chloro-6-methyl-5,5-dioxido-6,11-dihydrodibenzo[c,f][1,2]thiazepin-11-yl)amino)propanoic acid hydrochloride salt]	24.9 ± 12.6 µM	> 10 µM	
CN1c2ccccc2C(NCCCCC(=O)O)c2ccc(Cl)cc2S1(=O)=O.Cl (stereo not shown) [Compound 7i, 5-((3-Chloro-6-methyl-5,5-dioxido-6,11-dihydrodibenzo[c,f][1,2]thiazepin-11-yl)amino)pentanoic acid hydrochloride salt]	0.361 ± 0.0929 µM	> 10 µM	AUClast [3, 4]: 5963 ng·h/g; CL [3, 4]: 78 mL/min/kg; brain exposure (as measured by AUC) compared to the parent compound (tianeptine) [3, 5]: greater; half-life compared to the parent compound (tianeptine) [3, 5]: significantly longer; Cmax [3, 6]: 2860 ng/g; Tmax [3, 6]: 0.5 h; half-life [3, 6]: 2.33 h
CN1c2ccccc2C(NCCCCCCC(=O)O)c2ccc(Cl)cc2S1(=O)=O (stereo not shown) [Tianeptine, tianeptine, reference compound]		37.4 ± 11.2 µM	
